What was measured:
human skin = assay: Delivery of Curcumin into human skin by Multi-Photon Microscopy (Example 4); assay type: in vivo; settings: 0.5% w/w in mineral oil, one hour, volar forearm
Source text: • 1) Mineral oil and a solution of Curcumin in mineral oil (0.5% w/w). • 2) 35 mm×35 mm segments of ETP008 and ETP012 magnetic materials; ETP008 being a parallel linear array of common pole pairs of 450 gauss peak flux with a centre to centre spatial separation of 4 mm; ETP012 being an oriented displaced dipolar magnetic element array created by drawing a secondary flux pattern over a linear pattern comprising 2.0 mm poles, creating a pair of displaced dipolar magnetic elements of pitch of 2.5 pairs per centimeter, with the inter-pair flux gradient being 700 gauss or 1750 gauss per centimeter and the secondary field elements being oriented at 90 degrees to the primary and consisting of parallel pairs of displaced dipolar magnetic elements of pitch of 1.5 mm, creating 3.5 pairs per centimeter, with 300 gauss per centimeter oriented flux. • 3) 35 mm×35 mm segments of a “passive” non-magnetic material which is identical to the active materials in all respects except for the presence of the magnetic field. • 4) Six healthy human subjects between the ages of 20 and 40. • 5) Multi-Photon Microscopy apparatus and computer software capable of processing Multi-Photon microscopy images. […]

human epidermis [1] = assay: Time dependent epidermal thickness change by OCT after Urea, two magnetic array types vs passive (Example 2); assay type: in vivo; settings: for increase in epidermal thickness: passive regions
Source text: In a further in vivo experience, two examples of arrays comprising pairs of displaced magnetic dipolar elements of the present invention were studied to illustrate the essential requirement for the pairs of displaced magnetic dipolar elements to be correctly configured to the diamagnetic property of the active ingredient to be delivered, in addition to the dielectric properties of the target receptor barrier.
Urea was applied to skin in a similar manner to Example 1. The urea and occlusive dressings were removed at 10 minute time periods to take measurements using OTC, with the urea and occlusive dressing being immediately replaced after each set of measurements. Each site was imaged in triplicate for each time point (i.e. three sites, triplicate images, seven time points). The laser images were then analysed to determine the differential change in skin morphology in response to the penetration of urea into facial skin under the influence of two different configurations of the present invention. FIG. 12 summaries this experiment, with the thickness of the epidermis provided next to the image.
Magnetic array Type ETP000 is a magnetic array in which a parallel linear array of common pole pairs of 250 gauss peak flux with a centre to centre spatial separation of 2 mm. Magnetic array Type ETP008 is a parallel linear array of common pole pairs of 450 gauss peak flux with a centre to centre spatial separation of 4 mm.

human epidermal tissues = assay: Time dependent epidermal thickness change after 5% Urea gel, four magnetic array configurations vs passive (Example 3); assay type: in vivo; settings: 30 and 60 minutes
Method: As a further example, an additional experiment was undertaken to explore the time dependent changes in measured epidermal thickness using four different configurations of the present invention when compared to passive application.
As in previous examples, all test areas of skin were treated using a 5% Urea gel formation and occluded with Parafilm. The urea and occlusive dressings were removed at 30 minutes and 60 minutes to allow measurements to be taken, with the urea and dressing being immediately replaced after the 30 minute test. Four different arrangements of the pairs of displaced magnetic dipolar elements present invention were studied to elucidate the complex relationship between enhanced delivery to human skin and the specific arrangements of the pairs of displaced dipolar elements that make up the present invention.
The four arrangements of pairs of displaced dipolar elements used in this experiment were as follows:
Type ETP000 was a form of the present invention is which a parallel linear array of common pole pairs of 250 gauss peak flux with a centre to centre spatial separation of 2 mm.
Type ETP006 was a combination of two intersecting parallel linear common pole arrays at 90 degrees orientation to each other having a peak magnetic flux of 300 gauss and a spatial separation between pairs of 3.5 mm.
Type ETP008 was a parallel linear array of common pole pairs of 450 gauss peak flux with a centre to centre spatial separation of 4 mm.
Type ETP011 was a combination of two intersecting parallel linear common pole arrays at 90 degrees orientation to each other having a peak magnetic flux of 150 gauss and a spatial separation between pairs of 3 mm.
The segment marked Passive indicted the normal changes in epidermal thickness in response to topical and occluded application of a Urea Gel. This is considered the control.

human epidermis [2] = assay: In vitro diffusion of urea across human epidermal membranes in Franz-type cells (Example 5); assay type: in vitro ADME; settings: 5% urea gel
Source text: • 1) 5% w/w urea in VersaBase Gel (PCCA, Huston, Tex.). • 2) 11 mm diameter discs of flexible magnetic array matrix (ETP008) material and “passive” non-magnetic material which are identical to the active materials in all respects except for the presence of the magnetic field. • 3) Passive occlusive material consisting of a polymer film of similar thickness and cut to the same dimensions as the active magnetic polymer material. • 4) Epidermal membranes obtained from human skin sourced from abdominal region following abdominoplasty surgery. • 5) Pyrex glass Franz-type diffusion cells (enabling permeation across epidermal membranes of cross sectional area approximately 1.18 cm^2); receptor volume approximately 3.5 mL. • 6) Phosphate buffered saline (PBS). • 7) Thermostatted water bath with magnetic stirring capability. • 8) DMAB reagent (4% w/v) prepared with conc. sulphuric acid (4% v/v) in alcohol (95%). • 9) Digital portable LCR meter (TH2821/A/B, Changzhou Tonghui Electronic Co., Ltd, China). Method Preparation of Epidermal Membranes
Epidermal membranes were obtained by the heat separation method (Kligman & Christophers, 1963 Preparation of isolated sheets of human stratum corneum. Arch. Dermatol. 88: 70-73).
• 1) The membrane was placed between the donor and receptor compartment of the cell and allowed to equilibrate for 1 h with PBS in the receptor compartment which was stirred continuously with a magnetic stirrer. • 2) PBS was placed in the donor (1 mL) and receptor (approx. 3.5 mL) compartments of the cell which were then placed in a water bath maintained at 37±0.5° C. • 3) Epidermal membrane integrity was determined by visual inspection over a bright light and electrical resistance (kΩ) measurements using a digital portable LCR meter (TH2821/A/B, Changzhou Tonghui Electronic Co., Ltd, China). The measurements were taken by immersing the stainless steel probe lead tips, one each in the donor and receptor compartments (Fasano et al, 2002 Rapid integrity assessment of rat and human epidermal membranes for in vitro dermal regulatory testing: correlation of electrical resistance with tritiated water permeability. Toxicol. In Vitro 16: 731-40). […] Spectroscopic Analyses:
Urea quantification was based on the analytical method of Knorst et al 1997 (Analytical methods for measuring urea in pharmaceutical formulations. J. Pharm. Biomed. Anal. 15: 1627-32), a modified derivatisation by p-dimethylaminobenzaldehyde (DMAB) to convert urea into a coloured compound.
Derivatisation of urea in skin diffusate employed equal volumes of sample solution and the DMAB reagent (4% w/v) which was prepared with conc. sulphuric acid (4% v/v) in alcohol (95%). In this case 200 μL of the urea sample was mixed with 200 μL of the DMAB reagent. After 10 min the absorbance of the coloured derivatised solution was measured at 420 nm using a UVmini-1240 UV-Vis spectrophotometer (Shimadzu Scientific Instruments) against an appropriate reagent blank (receptor solution processed as for skin permeation receptor solution samples). Spectrophotometric analysis was carried out for quantitative analysis of urea that permeated the skin. […] The limit of detection (LOD) and limit of quantitation (LOQ) of the assay were 0.83 and 2.5 μg/mL respectively.
The results were compiled from nine cells containing the magnetic array film and eight control cells containing the passive non-magnetic film. A comparison of the cumulative amount of urea penetrating the epidermis to the receptor solution (μg/cm^2) versus time (mins) was plotted for passive and magnetic array enhanced applications (FIG. 16).

SMILES	Curcumin concentrations in the skin compared with passive material (human skin; ETP008 magnetic material)	Curcumin concentrations in the skin compared with passive material (human skin; ETP012 magnetic material)	epidermal thickness change (human epidermis [1]; Magnetic array Type ETP000, 30 minutes) [%]	epidermal thickness change (human epidermis [1]; Magnetic array Type ETP000, 60 minutes) [%]	epidermal thickness change (human epidermis [1]; Magnetic array Type ETP008, 30 minutes) [%]	epidermal thickness change (human epidermis [1]; Magnetic array Type ETP008, 60 minutes) [%]	increase in epidermal thickness (human epidermis [1]; 30 minutes) [%]	increase in epidermal thickness (human epidermis [1]; 60 minutes) [%]	penetration (changes in epidermal thickness) compared to passive (human epidermal tissues; Type 011 arrangement, 5% Urea gel)	penetration (changes in epidermal thickness) compared to passive (human epidermal tissues; Type ETP000, 5% Urea gel)	penetration (changes in epidermal thickness) compared to passive (human epidermal tissues; Type ETP006, 5% Urea gel)	penetration (changes in epidermal thickness) compared to passive (human epidermal tissues; Type ETP008, 5% Urea gel)	mean cumulative permeation over 2 h (human epidermis [2]; magnetic array material ETP008, mean±sem) [μg/cm^2]	lag time (human epidermis [2]; magnetic film array ETP008) [min]	steady state flux (human epidermis [2]; magnetic film array ETP008) [μg/cm^2·min]	lag time (human epidermis [2]; non-magnetic passive material) [min]	steady state flux (human epidermis [2]; non-magnetic passive material) [μg/cm^2·min]	mean cumulative permeation over 2 h (human epidermis [2]; non-magnetic passive material, mean±sem) [μg/cm^2]
COc1cc(/C=C/C(=O)CC(=O)/C=C/c2ccc(O)c(OC)c2)ccc1O [Curcumin]	significant increase	significant increase	–	–	–	–	–	–	–	–	–	–	–	–	–	–	–	–
NC(N)=O [Urea]	–	–	119.5	113.25	112.6	118	103.2	110	decreasing normal penetration	enhanced penetrations to different degrees over time	enhanced penetrations to different degrees over time	enhanced penetrations to different degrees over time	89.54±7.34	21.13 ± 6.27	0.75±0.06	40.58 ± 3.98	0.24±0.03	20.83±2.02

Source: patent publication US9463330B2, “Delivery of skin care products” (INTERNATIONAL SCIENTIFIC PTY LTD, priority 2010, dated 2016)
